Reference: patent publication US20090131470A1, “PYRAZOLE-SUBSTITUTED BENZIMIDAZOLE DERIVATIVES FOR USE IN THE TREATMENT OF CANCER AND AUTOIMMUNE DISORDERS” (priority 2005, published 2009)

Experiments:
Type in all cases: biochemical
[1] = biological target: T1, PKA (Homo sapiens, UniProt P17612); assay: PKA kinase assay (Kemptide substrate); conditions: 100 μM ATP
T1 construct: purchased Upstate
Method: (§1) The assay mixture containing the inhibitor and CDK-2 enzyme, complexed with cyclin A (0.4 U/ml) was mixed together in a microtiter plate in a final volume of 50 μl and incubated for 40 min at 30° C. The assay mixture contained 0.1 mM unlabeled ATP, 0.01 μCi/μl ^33P-γ-ATP, 0.03 mM peptide, 0.1 mg/ml BSA, 7.5 mM magnesium acetate, 50 mM HEPES-NaOH, pH 7.5. The reaction was stopped by adding 50 μl of 50 mM phosphoric acid. 90 μl of the mixture were transferred to a pre-wetted 96-well Multiscreen MAPHNOB filtration plate (Millipore) and filtered on a vacuum manifold. The filter plate was washed with 3 successive additions of 200 μl 50 mM phosphoric acid and then with 100 μl methanol. The filtration plate was dried for 10 min at 65° C., scintillant added and phosphorylated peptide quantified in a scintillation counter (Trilux, PerkinElmer)
The PKA assay was incubated at 30° C. for 30 minutes.

[2] = biological target: T2, PDK1 (Homo sapiens, UniProt O15530); assay: PDK1 kinase assay (33P peptide phosphorylation); conditions: 0.01 mM ATP, 60 min at 30° C.; read-out: PDK-1 IC50
T2 sequence (O15530 1-556): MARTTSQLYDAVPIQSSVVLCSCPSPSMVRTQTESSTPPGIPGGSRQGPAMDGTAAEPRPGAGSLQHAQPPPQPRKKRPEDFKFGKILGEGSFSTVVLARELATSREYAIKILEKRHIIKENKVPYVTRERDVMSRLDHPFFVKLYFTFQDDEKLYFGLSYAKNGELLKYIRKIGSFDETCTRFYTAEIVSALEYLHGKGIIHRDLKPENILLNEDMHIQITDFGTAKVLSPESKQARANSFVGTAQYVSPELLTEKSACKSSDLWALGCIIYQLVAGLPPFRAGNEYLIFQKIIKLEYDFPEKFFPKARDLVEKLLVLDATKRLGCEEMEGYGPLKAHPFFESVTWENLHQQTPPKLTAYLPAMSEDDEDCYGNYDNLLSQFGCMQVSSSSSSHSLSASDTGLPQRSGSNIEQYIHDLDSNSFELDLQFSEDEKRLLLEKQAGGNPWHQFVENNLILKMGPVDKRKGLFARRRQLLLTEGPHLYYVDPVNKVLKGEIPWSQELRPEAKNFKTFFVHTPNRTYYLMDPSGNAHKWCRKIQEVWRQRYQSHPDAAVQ
Method: as §1, with “and PDK1 enzyme” for “and CDK-2 enzyme, complexed with cyclin A (0.4 U/ml)”, “for 60” for “for 40”, “contained 0.01” for “contained 0.1”, “^33P-γ-ATP, 0.075” for “^33P-γ-ATP, 0.03”, “acetate, 0.05M Tris.HCl,” for “acetate, 50 mM HEPES-NaOH,”, “pH 7.5, 0.5% 2-mercaptoethanol.” for “pH 7.5.”

[3] = biological target: T3, Akt1 (Homo sapiens, UniProt P31749); assay: Akt1 kinase assay (Histone H1 substrate); conditions: 200 μM ATP, read-out: AKT-1 IC50
T3 construct: purchased Upstate
T3 sequence (P31749 whole entry, species assumed): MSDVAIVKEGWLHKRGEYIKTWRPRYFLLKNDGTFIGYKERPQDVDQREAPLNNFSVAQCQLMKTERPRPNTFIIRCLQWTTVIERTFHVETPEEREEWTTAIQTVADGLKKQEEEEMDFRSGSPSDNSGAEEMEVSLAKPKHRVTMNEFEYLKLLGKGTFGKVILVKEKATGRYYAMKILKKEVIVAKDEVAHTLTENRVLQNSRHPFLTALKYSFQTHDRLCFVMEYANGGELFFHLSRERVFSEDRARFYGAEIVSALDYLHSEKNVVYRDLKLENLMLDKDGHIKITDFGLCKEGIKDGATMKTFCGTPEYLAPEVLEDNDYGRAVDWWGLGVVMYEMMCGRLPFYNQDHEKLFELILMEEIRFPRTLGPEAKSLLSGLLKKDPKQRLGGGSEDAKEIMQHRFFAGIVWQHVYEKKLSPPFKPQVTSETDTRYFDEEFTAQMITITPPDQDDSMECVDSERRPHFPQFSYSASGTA
Method: Assays for the cyclin dependent kinase activity were carried out by monitoring the phosphorylation of a synthetic peptide, HATTPKKKRK. The assay mixture containing the inhibitor and CDK-2 enzyme, complexed with cyclin A (0.4 U/ml) was mixed together in a microtiter plate in a final volume of 50 μl and incubated for 40 min at 30° C. The assay mixture contained 0.1 mM unlabeled ATP, 0.01 μCi/μl ^33P-γ-ATP, 0.03 mM peptide, 0.1 mg/ml BSA, 7.5 mM magnesium acetate, 50 mM HEPES-NaOH, pH 7.5. The reaction was stopped by adding 50 μl of 50 mM phosphoric acid. 90 μl of the mixture were transferred to a pre-wetted 96-well Multiscreen MAPHNOB filtration plate (Millipore) and filtered on a vacuum manifold. The filter plate was washed with 3 successive additions of 200 μl 50 mM phosphoric acid and then with 100 μl methanol. The filtration plate was dried for 10 min at 65° C., scintillant added and phosphorylated peptide quantified in a scintillation counter (Trilux, PerkinElmer)
Protocol for the Akt assay is the same for CDK2 except that, 3 nM Akt1 (Upstate) was used with Histone H1 as substrate with a final ATP concentration of 200 μM. The reaction was incubated at 30° C. for 40 minutes.

[4] = biological target: T4, GST-Chk1 enzyme (Homo sapiens, UniProt O14757); assay: Chk1 kinase assay (33P Chktide phosphorylation); conditions: 0.01 mM ATP, 40 minutes at 30° C.; read-out: CHK-1 IC50
T4 sequence (O14757 1-476): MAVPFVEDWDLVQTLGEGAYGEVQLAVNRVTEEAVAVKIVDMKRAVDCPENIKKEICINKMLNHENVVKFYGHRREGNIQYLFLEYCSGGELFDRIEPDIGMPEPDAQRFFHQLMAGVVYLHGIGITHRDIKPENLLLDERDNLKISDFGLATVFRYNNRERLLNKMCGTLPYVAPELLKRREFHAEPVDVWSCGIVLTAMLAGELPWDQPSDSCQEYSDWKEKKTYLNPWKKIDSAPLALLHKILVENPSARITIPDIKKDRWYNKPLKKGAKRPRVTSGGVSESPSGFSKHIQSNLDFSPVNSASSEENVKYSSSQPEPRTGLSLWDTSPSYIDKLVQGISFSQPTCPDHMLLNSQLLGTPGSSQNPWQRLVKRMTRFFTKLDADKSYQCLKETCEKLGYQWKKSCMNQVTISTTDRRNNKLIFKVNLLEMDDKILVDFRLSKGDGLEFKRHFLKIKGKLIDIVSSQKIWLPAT
Method: as §1, with “and Chk1 enzyme” for “and CDK-2 enzyme, complexed with cyclin A (0.4 U/ml)”, “40 minutes” for “40 min”, “C. […]” for “C. The assay mixture contained 0.1 mM unlabeled ATP, 0.01 μCi/μl ^33P-γ-ATP, 0.03 mM peptide, 0.1 mg/ml BSA, 7.5 mM magnesium acetate, 50 mM HEPES-NaOH, pH 7.5.”, “mixture was” for “mixture were”, “96-well multi-screen” for “96-well Multiscreen”

[5] = biological target: CDK-2 enzyme, complexed with cyclin A (Homo sapiens, UniProt P24941); assay: CDK2 kinase assay (33P peptide phosphorylation); conditions: 0.1 mM ATP, cyclin A complex
Method: as §1

Row | Compound | IC50 [1] | IC50 [2] | IC50 [3] | IC50 [4] | IC50 [5]
1 | Cc1[nH]nc(-c2nc3ccccc3[nH]2)c1C(=O)NC1CCNCC1 [Example 1, 3-(1H-Benzoimidazol-2-yl)-5-methyl-1H-pyrazole-4-carboxylic Acid piperidin-4-ylamide] | 7.26 µM | 0.108 µM | 17.1 µM | 0.098 µM | 3.3 µM
2 | Cc1cc2nc(-c3n[nH]c(C)c3C(=O)NC3CCCNC3)[nH]c2cc1C (centres unmarked) [Example 2, 3-(5,6-Dimethyl-1H-benzoimidazol-2-yl)-5-methyl-1H-pyrazole-4-carboxylic Acid piperidin-3-ylamide] | 7.84 µM | 0.219 µM | 15.9 µM | 0.055 µM | 3.6 µM
3 | Cc1cc2nc(-c3n[nH]c(C)c3C(=O)NC3CCCN(C)C3)[nH]c2cc1C (centres unmarked) [Example 3, 3-(5,6-Dimethyl-1H benzoimidazole-2-yl)-5-methyl-1H-pyrazole-4-carboxylic Acid (1-methyl-piperidin-3-yl)-amide] | 23.4 µM | 0.44 µM | 41.3 µM | 0.077 µM | 30.9 µM
4 | Cc1[nH]nc(-c2nc3ccccc3[nH]2)c1C(=O)NCCCN [Example 4, 3-(1H-Benzoimidazol-2-yl)-5-methyl-1H-pyrazole-4-carboxylic Acid (3-amino-propyl)-amide] | 20.7 µM | 0.212 µM | > 50 µM | 0.031 µM | 39.8 µM
5 | Cc1[nH]nc(-c2nc3cc4ccccc4cc3[nH]2)c1C(=O)NC1CCNCC1 [Example 5, 5-Methyl-3-(1H-naphtho[2,3-d]imidazol-2-yl)-1H-pyrazole-4-carboxylic Acid piperidine-4-ylamide] | 3.24 µM | 0.058 µM | > 50 µM | 0.01 µM | 4.54 µM
6 | CCOC(=O)c1ccc2nc(-c3n[nH]c(C)c3C(=O)NC3CCNCC3)[nH]c2c1 [Example 6, 2-[5-Methyl-4-(piperidin-4-ylcarbamoyl)-1H-pyrazol-3-yl]-3H-benzimidazole-5-carboxylic Acid Ethyl Ester] | 40.2 µM | 0.433 µM | > 50 µM | 0.023 µM | 39.5 µM
7 | Cc1[nH]nc(-c2nc3ccc(C(=O)NC4CCCC4)cc3[nH]2)c1C(=O)NC1CCNCC1 [Example 7, 2-[5-Methyl-4-(piperidin-4-ylcarbamoyl)-1H-pyrazol-3-yl]-3H-benzimidazole-5-carboxylic Acid Cyclopentylamide] | 12.6 µM | 0.07 µM | 28.6 µM | 0.043 µM | 9.24 µM
8 | Cc1[nH]nc(-c2nc3ccc(-c4cc5ccccc5[nH]4)cc3[nH]2)c1C(=O)NC1CCNCC1 [Example 8, 3-[6-(1H-Indol-2-yl)-1H-benzimidazo-2-yl]-5-methyl-1H-pyrazole-4-carboxylic Acid piperidin-4-ylamide] | 1.34 µM | 0.019 µM | 5.84 µM | 0.012 µM | 2.8 µM
9 | Cc1[nH]nc(-c2nc3ccccc3[nH]2)c1C(=O)NCC1CCNCC1 [Example 9] | 7.51 µM | 0.129 µM | 11.1 µM | 0.208 µM | 47 µM
10 | Cc1[nH]nc(-c2nc3ccccc3[nH]2)c1C(=O)NC1CCN(Cc2ccccc2)CC1 [Example 10] | 29.1 µM | 0.435 µM | > 50 µM | 0.107 µM | 44 µM
11 | Cc1[nH]nc(-c2nc3cc4nc[nH]c4cc3[nH]2)c1C(=O)NC1CCNCC1 [Example 11] | 7.77 µM | 0.12 µM | > 50 µM | 0.088 µM | 38.9 µM
12 | Cc1[nH]nc(-c2nc3c(F)c(F)ccc3[nH]2)c1C(=O)NC1CCNCC1 [Example 12] | 20.9 µM | 0.485 µM | > 50 µM | 0.609 µM | 10.5 µM
13 | Cc1[nH]nc(-c2nc3cc(F)c(F)cc3[nH]2)c1C(=O)NC1CCNCC1 [Example 13] | 19.3 µM | 0.52 µM | > 50 µM | 0.508 µM | 7.92 µM
14 | Cc1[nH]nc(-c2nc3cc(Cl)c(Cl)cc3[nH]2)c1C(=O)NC1CCNCC1 [Example 15] | 8.85 µM | 0.123 µM | > 50 µM | 0.295 µM | 4.77 µM
15 | Cc1[nH]nc(-c2nc3ccccc3[nH]2)c1C(=O)NCCCCN [Example 16] | 20.7 µM | 0.249 µM | > 50 µM | 0.213 µM | 43.5 µM
16 | Cc1[nH]nc(-c2nc3cc(Cl)ccc3[nH]2)c1C(=O)NC1CCNCC1 [Example 17] | 9.03 µM | 0.189 µM | > 50 µM | 0.222 µM | 10.6 µM
17 | Cc1[nH]nc(-c2nc3cc(C#N)ccc3[nH]2)c1C(=O)NC1CCNCC1 [Example 18] | 22.6 µM | 0.311 µM | > 50 µM | 0.137 µM | 12.2 µM
18 | Cc1[nH]nc(-c2nc3ccccc3[nH]2)c1C(=O)NC1CCCNC1 (centres unmarked) [Example 19] | 10.9 µM | 0.05 µM | > 50 µM | 0.058 µM | 4.47 µM
19 | Cc1[nH]nc(-c2nc3ccc(C(=O)NC4CCc5ccccc54)cc3[nH]2)c1C(=O)NC1CCNCC1 (centres unmarked) [Example 48] |  | < 0.05 µM |  |  | 
20 | Cc1[nH]nc(-c2nc3ccc(C(C)C)cc3[nH]2)c1C(=O)NC1CC2CCC(C1)N2C (centres unmarked) [Example 49] |  | < 0.5 µM |  | < 0.5 µM | 
21 | Cc1[nH]nc(-c2nc3ccccc3[nH]2)c1C(=O)NCCN [Example 50] |  | < 0.5 µM |  | < 0.5 µM | 
